The text below walks through data of patent CN110194737A, “一种联水杨醛缩3-氯-2-肼基吡啶席夫碱合成方法与应用” (Harbin University of Science and Technology, priority 2019, dated 2019).

The nature of assay [1]: Quantitative analysis of Zn2+: linear relation of fluorescence intensity and Zn2+ concentration, detection limit (Examples 8-11, FIG. 5).
Assay [2] in a line: Qualitative/selective recognition of metal ions by the probe, Zn2+ (FIG. 6).
A short description of assay [3]: Anti-interference of the probe for Zn2+ in the presence of other metal ions (FIG. 7). Particulars: for fluorescence intensity: EX=350nm, EM=475nm.
Assay [4] can be described thus: Fluorescence titration of the Schiff base probe with Zn2+ (Examples 2-7, FIG. 4). Particulars: for fluorescence intensity: probe 2×10^-5mol/L in methanol, 3mL, EX=350nm, EM=475nm.
Assay [5] is described as follows: Qualitative/selective recognition of metal ions by the probe, Cd2+ (FIG. 6). To be noted: 100uL of 1×10^-2mol/L Cd2+; probe solution 3mL; EX=350nm, EM=475nm.

For the compound `CC(C)(C)c1cc(C=NNc2ncccc2Cl)c(O)c(-c2cc(C(C)(C)C)cc(C=NNc3ncccc3Cl)c2O)c1` [荧光探针, 5,5'-二叔丁基-2,2'-二羟基联苯-3,3'-二甲醛缩3-氯-2-肼基吡啶席夫碱], the fluorescence intensity in assay [1] (Zn2+ 30μM in the system, EX=350nm, EM=475nm) is on record as 119.8; in assay [1] (Zn2+ 50μM in the system, EX=350nm, EM=475nm), 440.2; in assay [1] (Zn2+ 70μM in the system, EX=350nm, EM=475nm), 765.9; in assay [2] (100uL of 1×10^-2mol/L Zn2+, probe solution 3mL, EX=350nm, EM=475nm) it was 923.5; in assay [3] (100uL Zn2+ plus 100uL Ba2+ (1×10^-2mol/L each)), 694.5; in assay [3] (100uL Zn2+ plus equal volume of Ca2+ (1×10^-2mol/L each)) it was 914.6. For the same compound, the fluorescence intensity in assay [4] (1μL of 1×10^-2mol/L Zn2+ added) was determined as 83.56; in assay [4] (6μL of 1×10^-2mol/L Zn2+ added) it was 468.2; in assay [4] (12μL of 1×10^-2mol/L Zn2+ added), 852.4; in assay [4] (18μL of 1×10^-2mol/L Zn2+ added), 952.4; in assay [4] (probe blank solution without Zn2+, slits 5nm), 28.02; in assay [5], 300.2. For the same compound, the detection limit in assay [1] (Zn2+, calculated) is 6.05e-08 mol/L. The “linear range of fluorescence intensity vs Zn2+ concentration” value in assay [1] (good linear relation, EX=350nm, EM=475nm) was 30 to 70 µM. Further, the “selectivity of recognition of Zn2+” value in assay [2] (vs 18 other metal ions, 100uL of 1×10^-2mol/L each) was “较好的选择性”. Further, the “interference by other metal ions in recognition of Zn2+” value in assay [3] (other metal ions coexisting with Zn2+) was “可避免其它金属离子共存时产生的干扰,可实现对Zn2+的专一性识别”. Also, the “visible change under UV lamp” value in assay [4] (365nm, after recognition of Zn2+) is “在紫外灯365nm下即可看到明显变化”. Further, in assay [4] (after recognition of Zn2+ (18μL of 1×10^-2mol/L Zn2+) vs probe blank), the “fluorescence intensity enhancement relative to blank” value is 34 fold.
